Among the data in patent publication US9346761B2, “Arginine methyltransferase inhibitors and uses thereof” (Epizyme, Inc., priority 2013, dated 2016) are IC50 values, retold here.

As usually defined, the IC50 is the concentration needed to halve the response being measured. A higher IC50 goes with lower potency.

Experiment [1] concerns the target T1, Full-length human PRMT1 isoform 1 (Homo sapiens, UniProt Q99873).
T1 construct: GST-tagged PRMT1; made in house; host or cells: High Five insect cells (baculovirus, pFastBacI)
Put plainly: PRMT1 biochemical assay (3H-SAM Flashplate, peptide substrate). In a few lines: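 Tritiated methyl transfer from 3H-SAM onto biotinylated peptide, captured on streptavidin Flashplates and counted. Baculovirus-expressed GST-PRMT1 and compound were preincubated 30 min at room temperature in Bicine buffer pH 7.6. Cold SAM at 300 uM final ended the reaction.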

Experiment [2] has as its target T2, Full-length human PRMT6 (Homo sapiens, UniProt Q96LA8).
T2 construct: Flag-PRMT6-His was eluted with 200 ug/ml FLAG peptide in the same buffer; made in house; host or cells: HEK 293F cells (BacMam virus, pFastBacMam)
Put plainly: PRMT6 biochemical assay (3H-SAM Flashplate, peptide substrate). The essentials:
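Read-out is 3H-methylated histone H4 (36-50) peptide bound to streptavidin Flashplates after a cold-SAM stop. Baculovirus-expressed Flag-PRMT6-His met compound for 30 min at room temperature before SAM and peptide; Bicine pH 7.6 buffer. IC50 fitted to % inhibition normalized to SAH (min) and DMSO (max).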

Counter-ions that a name gives are not always drawn.

T1 sequence (Q99873 with tags, fused parts or gaps): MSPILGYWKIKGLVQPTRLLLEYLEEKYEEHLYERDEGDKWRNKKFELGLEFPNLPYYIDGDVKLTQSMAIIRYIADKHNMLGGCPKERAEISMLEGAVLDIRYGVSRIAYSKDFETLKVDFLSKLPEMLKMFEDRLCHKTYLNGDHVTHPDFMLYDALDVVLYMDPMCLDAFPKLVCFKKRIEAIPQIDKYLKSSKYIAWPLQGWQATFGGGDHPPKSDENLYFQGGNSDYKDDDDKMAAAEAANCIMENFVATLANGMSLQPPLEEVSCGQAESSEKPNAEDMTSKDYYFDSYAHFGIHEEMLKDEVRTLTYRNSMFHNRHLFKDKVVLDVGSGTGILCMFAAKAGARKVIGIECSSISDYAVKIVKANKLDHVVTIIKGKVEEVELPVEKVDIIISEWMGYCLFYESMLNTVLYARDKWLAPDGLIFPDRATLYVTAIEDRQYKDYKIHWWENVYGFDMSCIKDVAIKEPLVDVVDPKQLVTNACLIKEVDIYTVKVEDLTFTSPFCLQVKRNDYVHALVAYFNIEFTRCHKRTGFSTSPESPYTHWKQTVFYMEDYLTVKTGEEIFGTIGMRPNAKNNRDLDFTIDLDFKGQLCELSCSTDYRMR
T2 sequence (Q96LA8 with tags, fused parts or gaps): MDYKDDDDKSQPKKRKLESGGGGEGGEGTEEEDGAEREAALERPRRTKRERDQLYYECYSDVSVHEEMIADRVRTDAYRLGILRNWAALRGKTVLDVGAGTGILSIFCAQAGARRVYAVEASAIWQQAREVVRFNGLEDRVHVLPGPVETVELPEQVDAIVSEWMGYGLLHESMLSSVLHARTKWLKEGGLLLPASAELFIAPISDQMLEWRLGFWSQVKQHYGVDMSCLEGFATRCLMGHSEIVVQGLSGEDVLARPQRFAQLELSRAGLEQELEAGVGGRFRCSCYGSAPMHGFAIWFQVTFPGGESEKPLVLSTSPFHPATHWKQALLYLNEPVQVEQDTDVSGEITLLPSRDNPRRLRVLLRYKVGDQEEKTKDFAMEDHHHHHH

Take `CN(CCN)Cc1c(-c2ccc(C#N)cc2)ncn1C` [Compound 222]: the IC50 in experiment [1] and in experiment [2] was 1010 to 3000 nM each time.

Regarding `CN(CCN)Cc1c[nH]nc1-c1ccc(Oc2ccccc2)c(F)c1` [Compound 224, N^1-((3-(3-fluoro-4-phenoxyphenyl)-1H-pyrazol-4-yl)methyl)-N^1-methylethane-1,2-diamine], the IC50 in experiment [1] and in experiment [2] was below 100 nM each time.

For `CN(CCN)Cc1c[nH]nc1-c1ccc(Oc2ccc(F)cc2)cc1` [Compound 225, N^1-((3-(4-(4-fluorophenoxy)phenyl)-1H-pyrazol-4-yl)methyl)-N^1-methylethane-1,2-diamine], the IC50 in experiment [1] and in experiment [2] was below 100 nM throughout.

As for `CN(CCN)Cc1c[nH]nc1-c1ccc(Oc2ccccc2)c(C(=O)N(C)C)c1` [Compound 226], the IC50 in experiment [1] and in experiment [2] was below 100 nM each time.

Turning to `CNC(=O)c1cc(-c2n[nH]cc2CN(C)CCN)ccc1Oc1ccccc1` [Compound 227], the IC50 in experiment [1] and in experiment [2] was below 100 nM in each case.

Turning to `CNCCN(C)Cc1c[nH]nc1-c1ccc(OCCCOC)c(Cl)c1` [Compound 228], the IC50 in experiment [1] and in experiment [2] was below 100 nM in each case.

Turning to `CNCCN(C)Cc1cn(C)nc1-c1ccc(OC(C)C)cc1` [Compound 243, N1-((3-(4-isopropoxyphenyl)-1-methyl-1H-pyrazol-4-yl)methyl)-N1,N2-dimethylethane-1,2-diamine], the IC50 is below 100 nM in experiment [1] and 101 to 1000 nM in experiment [2].

Take `CNCCN(C)Cc1cn(Cc2cccnc2)nc1-c1ccc(OC(C)C)cc1` [Compound 246]: the IC50 in experiment [1] was below 100 nM; in experiment [2] it was 101 to 1000 nM.

Turning to `CNCCN(C)Cc1cn(Cc2ccccn2)nc1-c1ccc(OC(C)C)cc1` [Compound 247], the IC50 in experiment [1] and in experiment [2] was 101 to 1000 nM each time.

Regarding `CNCCN(C)Cc1cn(CC(=O)OC)nc1-c1ccc(OC(C)C)cc1` [Compound 248], the IC50 in experiment [1] and in experiment [2] was 101 to 1000 nM in each case.

In the case of `CNCCN(C)Cc1cnn(CC(=O)OC)c1-c1ccc(OC(C)C)cc1` [Compound 249], the IC50 in experiment [1] and in experiment [2] was 101 to 1000 nM in each case.

With `CNCCN(C)Cc1cn(CC(=O)O)nc1-c1ccc(OC(C)C)cc1` [Compound 250], the IC50 in experiment [1] lay in the range of 101 to 1000 nM; in experiment [2] it was 3010 to 10000 nM.

For the compound `CNCCN(C)Cc1cn(CC(N)=O)nc1-c1ccc(OC(C)C)cc1` [Compound 251], the IC50 fell in the range of 101 to 1000 nM in experiment [1] and 1010 to 3000 nM in experiment [2].

`CCn1ncc(CN(C)CCNC)c1-c1ccc(OC(C)C)cc1` [Compound 252]: the IC50 was below 100 nM in experiment [1] and 101 to 1000 nM in experiment [2].

In the case of `CNCCN(C)Cc1cn(CCOC)nc1-c1ccc(OC(C)C)cc1` [Compound 253, N1-((3-(4-isopropoxyphenyl)-1-(2-methoxyethyl)-1H-pyrazol-4-yl)methyl)-N1,N2-dimethylethane-1,2-diamine hydrochloride], the IC50 in experiment [1] and in experiment [2] was 101 to 1000 nM each time.

`CNCCN(C)Cc1cn(C2CCC2)nc1-c1ccc(OC(C)C)cc1` [Compound 254, N1-((1-cyclobutyl-3-(4-isopropoxyphenyl)-1H-pyrazol-4-yl)methyl)-N1,N2-dimethylethane-1,2-diamine hydrochloride]: the values for the IC50 in experiment [1] and in experiment [2] were below 100 nM and 101 to 1000 nM, respectively.

Take `CNCCN(C)Cc1cnn(C2CCCC2)c1-c1ccc(OC(C)C)cc1` [Compound 255]: the IC50 in experiment [1] and in experiment [2] was below 100 nM throughout.

`CNCCN(C)Cc1cn(C2CCCCC2)nc1-c1ccc(OC(C)C)cc1` [Compound 256]: the IC50 in experiment [1] and in experiment [2] was 101 to 1000 nM each time.

`C=C(C)C(=O)Nc1cccc(-c2[nH]ncc2CN(C)CCNC)c1` [Compound 257]: the IC50 in experiment [1] and in experiment [2] was 101 to 1000 nM each time.

For `C=CC(=O)Nc1cccc(-c2[nH]ncc2CN(C)CCNC)c1` [Compound 258], the values for the IC50 in experiment [1] and in experiment [2] were below 100 nM and 101 to 1000 nM, respectively.
